Experimental data published in ChEMBL document CHEMBL5241086, “Research progress of indole compounds with potential antidiabetic activity” (Eur J Med Chem, 2021).
Converted amounts (≈) assume the structure as drawn.

Legend:
[1] = target: Aldo-keto reductase family 1 member B1 (Homo sapiens) (UniProt P15121); experiment: Inhibition of Aldose reductase (unknown origin) using DL-Glyceraldehyde as substrate incubated for 5 mins in presence of NADPH by spectrophotometer analysis
Alpha glucosidase [2] = target: T1, Alpha glucosidase (Homo sapiens, UniProt O43451+P10253+P14410+Q2M2H8); experiment: Inhibition of alpha glucosidase (unknown origin) using p-nitrophenyl glucopyranoside as substrate by multimode plate reader analysis; format: protein assay
Alpha glucosidase [3] = target: T1, Alpha glucosidase; experiment: Inhibition of alpha glucosidase (unknown origin) using p-nitrophenyl glucopyranoside as substrate preincubated for 15 mins followed by substrate addition and measured after 30 mins by spectrophotometer analysis; format: protein assay
Homo sapiens = species: Homo sapiens; experiment: Inhibition of beta-glucosidase (unknown origin) assessed as residual activity at 100 uM […] incubated for 1 hr followed by substrate addition and measured after 5 mins by spectrophotometer analysis relative to control; conditions: time 65.0 hrs
Alpha glucosidase [4] = target: T1, Alpha glucosidase; experiment: Inhibition of alpha glucosidase (unknown origin) using p-nitrophenyl glucopyranoside as substrate by UV based microplate reader analysis; format: protein assay
[5] = target: T2, Glucose-dependent insulinotropic receptor (Homo sapiens, UniProt Q8TDV5); experiment: Agonist activity at human GPR119 incubated for 2 hrs by luciferase reporter gene assay
T2 sequence (Q8TDV5 whole entry): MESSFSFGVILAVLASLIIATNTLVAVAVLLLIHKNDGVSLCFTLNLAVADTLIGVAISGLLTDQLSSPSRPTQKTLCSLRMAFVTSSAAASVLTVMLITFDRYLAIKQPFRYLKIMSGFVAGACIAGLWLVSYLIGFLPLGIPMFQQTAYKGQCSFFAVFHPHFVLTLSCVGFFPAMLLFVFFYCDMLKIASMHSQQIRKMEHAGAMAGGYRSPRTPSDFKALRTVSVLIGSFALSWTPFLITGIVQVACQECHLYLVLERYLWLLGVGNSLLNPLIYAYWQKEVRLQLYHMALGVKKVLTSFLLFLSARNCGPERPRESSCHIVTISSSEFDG

Alpha glucosidase [6] = target: T1, Alpha glucosidase; experiment: Inhibition of alpha glucosidase (unknown origin) using p-nitrophenyl glucopyranoside as substrate by UV Vis- spectrophotometer analysis; format: protein assay
Mus musculus = experiment: Antidiabetic activity in mouse assessed as reduction in blood glucose level at 100 mg/kg, po bid measured up to 21 days; format: functional; design: scale not given: the % may be the effect or the level left; conditions: time <= 21 day

Compound: O=Cc1c(-c2ccccc2)[nH]c2ccccc12
- inhibition [1]: 7.6%

Compound: Cc1ccc2c(c1)COC(c1c(-c3ccccc3)[nH]c3ccccc13)N2 (configuration not stated)
- IC50 (Alpha glucosidase [2]): 11.5 µM

Compound: O=C1Nc2ccccc2C1(c1cn(Cc2ccccc2F)c2ccccc12)c1cn(Cc2ccccc2F)c2ccccc12
- IC50 (Alpha glucosidase [3]): 5.98 µM

Compound: O=C(N[C@@H](Cc1c[nH]c2ccccc12)C(=O)O)c1cccc(Cl)c1
- Activity (Homo sapiens): 49%

Compound: Clc1ccc2c(c1)COC(c1c(-c3ccccc3)[nH]c3ccccc13)N2 (configuration not stated)
- IC50 (Alpha glucosidase [2]): 11.5 µM

Compound: Cc1ccnc(NC(=O)CSc2nnc(CCCc3c[nH]c4ccccc34)o2)c1
- IC50 (Alpha glucosidase [4]): 9.37 µM

Compound: Clc1ccc2c(c1)NC(c1c[nH]c3ccccc13)OC2 (configuration not stated)
- IC50 (Alpha glucosidase [2]): 11.5 µM

Compound: CCc1cnc(N2CCC(C(C)COC(=O)N3CCc4cc(S(C)(=O)=O)ccc43)CC2)nc1 (configuration not stated)
- EC50 [5]: 0.0039 µM

Compound: Cc1ccc2c(c1)COC(c1c(C)[nH]c3ccccc13)N2 (configuration not stated)
- IC50 (Alpha glucosidase [2]): 11.5 µM

Compound: Brc1ccc(-c2csc(-n3nc(-c4ccccc4)cc3-c3c[nH]c4ccccc34)n2)cc1
- IC50 (Alpha glucosidase [6]): 236.1 mg/L (≈ 475 µM)

Compound: Nc1ccc(-c2cc3ccccc3[nH]2)cc1
- inhibition [1]: 11%

Compound: c1ccc2c(c1)COC(c1c[nH]c3ccccc13)N2 (configuration not stated)
- IC50 (Alpha glucosidase [2]): 11.5 µM

Compound: O=C1Nc2ccccc2/C1=N/NC(=S)N/N=C/c1ccc(Cl)cc1
- Activity (Mus musculus): 29.6%

Compound: Cc1[nH]c2ccccc2c1C1Nc2ccccc2CO1 (configuration not stated)
- IC50 (Alpha glucosidase [2]): 11.5 µM

Compound: COC(=O)[C@H](Cc1c[nH]c2ccccc12)NC(=O)c1cccc([N+](=O)[O-])c1
- Activity (Homo sapiens): 37%

Compound: Cc1cccc(NC(=O)CSc2nnc(CCCc3c[nH]c4ccccc34)o2)c1C
- IC50 (Alpha glucosidase [4]): 9.46 µM

Compound: O=[N+]([O-])c1cc(-c2cc3ccccc3[nH]2)ccc1Cl
- inhibition [1]: 5.3%
